Values quoted from earlier work, collected in article PMC3480965 (Molecular pharmaceutics, 2012).

Experiments:
[1] = biological target: melanocortin-1 (MC1) receptor (Mus musculus, UniProt Q01727); details: read-out: MC1 receptor binding affinity (IC50); B16/F1 melanoma cells
melanoma = details: in vivo, 2 h

melanocortin-1 (MC1) receptor, sequence (Q01727 whole entry): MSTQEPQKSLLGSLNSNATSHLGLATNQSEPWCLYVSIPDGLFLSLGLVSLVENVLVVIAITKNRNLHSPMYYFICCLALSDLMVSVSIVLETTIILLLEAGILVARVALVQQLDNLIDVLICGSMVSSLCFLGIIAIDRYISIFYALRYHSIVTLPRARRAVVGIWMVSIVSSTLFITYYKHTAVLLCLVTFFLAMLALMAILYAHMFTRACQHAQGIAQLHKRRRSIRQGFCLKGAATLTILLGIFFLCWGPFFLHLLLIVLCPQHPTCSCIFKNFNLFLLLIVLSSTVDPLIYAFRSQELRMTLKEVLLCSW

| IC50 [1] [nM] | Liver uptake (melanoma) [% ID/g] | Melanoma uptake (melanoma) [% ID/g] | Substance |
| --- | --- | --- | --- |
| 2.1 |  |  | 1,4,7,10-tetraazacyclononane-1,4,7,10-tetraacetic acid-GGNle-CycMSHhex (GGXDHFRWK; X3 = norleucine (Nle); D-Phe6; lactam bridge between Asp4 and Lys9 side chains (cyclic); C-terminal amide; 64Cu-labelled for biod) [DOTA-GGNle-CycMSHhex] |
|  | 11.0 | 4.63 ± 0.45 | Ac-Nle-Asp-His-D-Phe-Arg-Trp-Gly-Lys(^64Cu-DOTA)-NH2 [^64Cu-DOTA-NAPamide] |
|  | 7.3 | 8.80 ± 1.70 | ^64Cu-DOTA-Re-[Cys[3],[4],[10], D-Phe^7, Arg^11]a-MSH3–13 [^64Cu-DOTA-ReCCMSH(Arg^11)] |
